The values that follow come from patent US8871741B2, “Inhibition of TNF-α induced activation of NFKB by pentosan polysulfate” (Icahn School of Medicine at Mount Sinai, priority 2010, dated 2014).

Test [1] deals with macrophages (F4/80). The test can be described thus: F4/80 immunostaining for macrophage infiltration in kidney. The class given is in vivo, mouse. The conditions noted are these: PPS treated 22 month-old diabetic mice. From the text:
(§1) Paraffin sections from non-diabetic and diabetic mice were deparaffinized prior to staining for apoptosis, makers for inflammation such as macrophages (F4/80, 1:100, Caltag Laboratories, Burlingame, Calif.) and phosphorylated NF-κB (p65 (Ser276), 1:25, Cell Signaling Technology, Inc, Danvers, Mass.), markers for oxidative stress, i.e., nitrotyrosine (1:140, Upstate Biotechnology Inc, Billerica, Mass.) and malondialdehyde (MDA, 1:100, Alpha Diagnostic International Inc, San Antonio, Tex.), and markers for endoplasmic reticulum (ER) stress, i.e., phosphorylated pancreatic ER kinase (PERK, 1:5, Santa Cruz Biotechnology, Santa Cruz, Calif.), and phosphorylated eukaryotic initiation factor 2α (eIF2α, 1:50, Stressgen Bioreagents Corp, Norwalk, Conn.).
(§2) Stained sections were examined under light microscopy (Zeiss Axioskop, Germany). The cortical area of the kidney was digitized under ×10 objective low power with a Sony 3CCD color video camera and a meta imaging series software (Molecular Devices, Downingtown, Pa.). The area of positively stained tubules and glomeruli was measured and expressed as the percentage of total cortical area. The intensity of the staining was also assessed using the color differentiation program.

Test [2] deals with phosphorylated NF-κB (p65 (Ser276)). Description: Immunostaining for nuclear phosphorylated NF-κB in kidney. Conditions: PPS treated 22 month-old diabetic kidney. The class given is in vivo, mouse.
Source text: as §1, §2

Test [3] has as its system MCP-1 and RANTES. Description: TNFα stimulated MCP-1 and RANTES production by proximal tubular cells, ELISA. It is filed as cell-based, mouse. The conditions noted are these: PPS 200 μg/ml pretreatment, TNFα 10 ng/ml, p<0.01 vs. TNFα alone. On the procedure:
A proximal tubular cell line obtained from mice transgenic for SV40 T antigen was grown in DMEM containing 10% FBS. For the measurement of TNFα-stimulated gene expression, 1×10^5 proximal tubular cells were transferred to each well of a 6-well-plate. After placing the cells in 0.1% FBS medium for 24 hours, 10 ng/ml of TNFα was added to test wells. Total RNA was isolated from all wells 4 hours later. MCP-1, RANTES, CXCL1, MIP-2, ICAM-1, and iNOS mRNA levels were determined by real-time PCR as described above and corrected by β-actin mRNA levels. TNFα stimulated MCP-1 and RANTES production and release into the medium was measured in TNFα (10 ng/ml) treated and control cells at 24 hours. The amount of MCP-1 or RANTES in the medium was measured by ELISA (Invitrogen Corporation (Carlsband, Calif.).
To determine the effect of PPS on TNFα induced upregulation of proinflammatory genes, proximal tubular cells were pre-treated with PPS (200 μg/ml) for 1 hour before the addition of TNFα (10 ng/ml). MCP-1, RANTES, CXCL1, MIP-2, ICAM-1, and iNOS mRNA levels were determined 4 hours later by real-time PCR. MCP-1 and RANTES production was also measured.

Test [4] has as its system NF-κB. Description: NF-κB luciferase reporter assay in proximal tubular cells. The class given is cell-based, mouse. Conditions: PPS 50-200 μg/ml, TNFα 10 ng/ml. On the procedure: To further determine the effect of PPS on NF-κB transcription activity, proximal tubular cells were transfected with a NF-κB reporter in the presence or absence of PPS (50-200 μg/ml) and TNFα (10 ng/ml). Some cells were also transfected with a cDNA expression vector containing constitutively active IκB, dominant negative IKK, or IKK. A β-galactosidase cDNA expression vector was co-transfected with the NF-κB reporter to serve as an internal control for transfection efficiency. Luciferase and β-galactosidase activity were measured using substrate assays. The same amount of DNA (1 μg/well of 24 well plates) was used for each transfection throughout the experiments.
For orientation: In a reporter assay the amount or activity of a reporter protein is the signal.

For the substance pentosan polysulfate [PPS], in test [1], the “macrophage infiltration in kidney (F4/80 immunostaining)” value was “largely prevented”. Also, the “number of nuclei stained positively for phosphorylated NF-κB (p65 (Ser276))” value in test [2] is “noticeably reduced”. For the same substance, the “TNFα stimulated MCP-1 and RANTES protein production” value in test [3] was “decreased”. For the same substance, the “TNFα stimulated NF-κB transcriptional activity” value in test [4] is listed as “dependently decreased”.
